Ki, Ratio Ki and inhibition data for 24 compounds are collected here from ChEMBL document CHEMBL1158581, “Synthesis and evaluation of new N6-substituted adenosine-5'-N-methylcarboxamides as A3 adenosine receptor agonists” (Bioorg Med Chem, 2010).

The source made the active and inactive calls. The calls are words filed in the database; no cut-off is given here. Some results are limits rather than exact numbers.

For assay [1], the target named is T1, Adenosine receptor A1 (Homo sapiens, UniProt P30542).
T1 sequence (P30542 whole entry): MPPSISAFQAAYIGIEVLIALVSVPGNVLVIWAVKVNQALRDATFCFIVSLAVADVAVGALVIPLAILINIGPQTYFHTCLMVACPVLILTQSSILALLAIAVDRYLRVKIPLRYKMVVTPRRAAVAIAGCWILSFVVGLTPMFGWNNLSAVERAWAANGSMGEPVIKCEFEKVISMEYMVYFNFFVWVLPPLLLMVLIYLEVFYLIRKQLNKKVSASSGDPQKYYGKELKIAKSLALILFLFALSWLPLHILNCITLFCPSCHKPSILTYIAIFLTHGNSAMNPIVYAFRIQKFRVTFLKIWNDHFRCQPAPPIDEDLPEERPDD
Description: Displacement of [125I]ABA from human recombinant adenosine A1 receptor by rapid filtration technique. On the technique in general: Loss of bound radioactivity is the signal in a displacement assay; it reports binding, not function.

The target of assay [2] is T2, Adenosine receptor A2a (Homo sapiens, UniProt P29274). Description: Displacement of [3H]ZM241385 from human recombinant adenosine A2A receptor by rapid filtration technique.
Assay [3] deals with T3, Adenosine receptor A3 (Homo sapiens, UniProt P0DMS8).
T3 sequence (P0DMS8 whole entry): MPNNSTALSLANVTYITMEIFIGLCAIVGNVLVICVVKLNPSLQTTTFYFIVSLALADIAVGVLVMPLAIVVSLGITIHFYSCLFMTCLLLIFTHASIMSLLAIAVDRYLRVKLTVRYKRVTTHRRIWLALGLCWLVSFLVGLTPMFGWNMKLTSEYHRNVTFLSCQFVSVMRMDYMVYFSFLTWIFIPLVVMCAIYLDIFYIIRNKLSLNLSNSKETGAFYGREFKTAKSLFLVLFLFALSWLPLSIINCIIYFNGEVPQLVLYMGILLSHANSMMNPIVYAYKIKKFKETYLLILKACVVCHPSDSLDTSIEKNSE
Briefly: Displacement of [125I]ABA from human recombinant adenosine A3 receptor by rapid filtration technique.

The target in assay [4] is Adenosine receptors; A1 & A3 (Homo sapiens) (UniProt P30542+P0DMS8). Briefly: Selectivity ratio of Ki for human recombinant adenosine A1 receptor to Ki for human recombinant adenosine A3 receptor.
The test system of assay [5] is H9c2. Description: Cardioprotective effect against hypoxic simulated ischemia in rat H9c2 cells assessed as reduction in cell death at 100 nM after 12 hrs by propidium iodide staining-based inverted microscopy. To be noted: for inhibition at 0.1 µM: H9c2, 12 h. The format is functional.
Assay [6] concerns H9c2. Description: Cardioprotective effect against hypoxic simulated ischemia in rat H9c2 cells assessed as reduction in cell death at 10 nM after 12 hrs by propidium iodide staining-based inverted microscopy. The format is functional.
The test system of assay [7] is H9c2. Description: Cardioprotective effect against hypoxic simulated ischemia in rat H9c2 cells assessed as reduction in cell death at 100 nM after 12 hrs by propidium iodide staining-based inverted microscopy in presence of adenosine A3 receptor antagonist MRS-1191. In kind it is functional.
Assay [8] concerns the target T2, Adenosine receptor A2a. Briefly: Displacement of [3H]ZM241385 from human recombinant adenosine A2A receptor at 10 uM by rapid filtration technique.
For assay [9], the target named is T3, Adenosine receptor A3. Briefly: Binding affinity to adenosine A3 receptor.
The nature of assay [10]: Selectivity ratio of Ki for adenosine A1 receptor to Ki for adenosine A3 receptor.

T2 sequence (P29274 whole entry): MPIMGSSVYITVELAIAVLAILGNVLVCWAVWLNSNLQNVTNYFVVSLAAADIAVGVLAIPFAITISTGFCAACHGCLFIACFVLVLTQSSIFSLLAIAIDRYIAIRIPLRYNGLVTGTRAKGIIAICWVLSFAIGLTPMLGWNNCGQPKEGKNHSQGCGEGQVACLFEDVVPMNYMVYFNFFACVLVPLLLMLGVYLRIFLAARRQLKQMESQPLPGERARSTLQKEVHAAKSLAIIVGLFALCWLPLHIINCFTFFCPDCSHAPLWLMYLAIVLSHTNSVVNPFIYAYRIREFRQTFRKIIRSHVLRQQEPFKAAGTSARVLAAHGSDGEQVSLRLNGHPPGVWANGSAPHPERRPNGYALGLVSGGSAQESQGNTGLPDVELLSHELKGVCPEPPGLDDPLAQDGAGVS

As for `CC1(C)CC(NC2NC=Nc3c2ncn3[C@@H]2O[C@H](CO)[C@@H](O)[C@H]2O)CC(C)(C)N1[O]` (stereo partly drawn), the Ki (as a rule, a dissociation constant, usually derived from enzyme kinetics or from competition with a known ligand) in [1] is 50 nM; in assay [2] it was > 10 µM; in [3] it was 8560 nM. Besides, the Ratio Ki in assay [4] was determined as 0.0058.
Take `CNC(=O)[C@H]1O[C@@H](n2cnc3c(NCc4ccc(CNC(=O)c5cc(C(C)(C)C)cc(C(C)(C)C)c5)cc4)ncnc32)[C@H](O)[C@@H]1O`: the Ki in [1] was 128 nM; in [2], > 10 µM; in [3] it was 9.02 nM. In addition, the Ratio Ki in [4] is 14. Moreover, in assay [5], the inhibition – broadly, the share of the control response that was lost under treatment – at 0.1 µM is 68.3%. In addition, the inhibition result in assay [6] and in assay [7] was “inactive” in each case.
As for `CNC(=O)[C@H]1O[C@@H](n2cnc3c(Nc4ccc(CCNC(=O)c5ccc6c(c5)C(C)(C)N([O])C6(C)C)cc4)ncnc32)[C@H](O)[C@@H]1O`, the inhibition constant Ki in assay [1] is 53.1 nM; in assay [2], > 10 µM; in assay [3] it was 25 nM. Besides, the Ratio Ki in assay [4] worked out at 2.1.
With `CNC(=O)[C@H]1O[C@@H](n2cnc3c(Nc4ccc(CCNC(=O)c5cc(OC)c(OC)c(OC)c5)cc4)ncnc32)[C@H](O)[C@@H]1O`, the Ki in [1] was found to be 26.2 nM; in assay [3], 4.26 nM. Also, the inhibition in assay [8] is 27%. The Ratio Ki in [4] worked out at 6.2. The inhibition entry in [5] was “Active”. In addition, the inhibition result in assay [6] and in assay [7] was “inactive” each time.
As to `CNC(=O)[C@H]1O[C@@H](n2cnc3c(Nc4ccc(CCNC(=O)c5cc(C(C)(C)C)cc(C(C)(C)C)c5)cc4)ncnc32)[C@H](O)[C@@H]1O`, the inhibition constant Ki in assay [1] is 245 nM; in assay [2], > 10 µM; in assay [3] it was 2.25 nM. The Ratio Ki in [4] was 109. For the same compound, the inhibition entry in assay [5] was “Active”. For the same compound, the inhibition entry in assay [6] and in [7] was “inactive” each time.
`CC1(C)c2ccc(CNC3NC=Nc4c3ncn4[C@@H]3O[C@H](CO)[C@@H](O)[C@H]3O)cc2C(C)(C)N1[O]` (stereo partly drawn): the Ki in assay [1] is 1140 nM; in [2], > 10 µM; in assay [3], 280 nM. In addition, in assay [4], the Ratio Ki was 4.1.
On to `CNC(=O)[C@H]1O[C@@H](n2cnc3c(Nc4ccc5c(c4)C(C)(C)N([O])C5(C)C)ncnc32)[C@H](O)[C@@H]1O`, for which the Ki was 800 nM in assay [1], > 10 µM in assay [2] and 530 nM in [3]. For the same compound, the Ratio Ki in assay [4] is 1.5.
Take `CC(C)(C)c1cc(CCNc2ncnc3c2ncn3[C@@H]2O[C@H](CO)[C@@H](O)[C@H]2O)cc(C(C)(C)C)c1O`: the results for the Ki in assay [1] and in assay [3] were 150 nM and 30 nM, respectively. For the same compound, the inhibition in [8] turned out to be 20%. The Ratio Ki in assay [4] was 5.
Turning to `CC1(C)CC(CNc2ncnc3c2ncn3[C@@H]2O[C@H](CO)[C@@H](O)[C@H]2O)C(C)(C)N1[O]` (stereo partly drawn), the values for the inhibition constant (Ki) in assay [2] and in assay [9] were > 10 µM and 50 nM, respectively. The results for the Ratio Ki in assay [4] and in assay [10] were 0.0024 and 400, respectively.
Turning to `CNC(=O)[C@H]1O[C@@H](n2cnc3c(NC4CC(C)(C)NC(C)(C)C4)ncnc32)[C@H](O)[C@@H]1O`, the Ki in [1] is 960 nM; in assay [2], > 10 µM; in assay [3], 2480 nM. Moreover, in assay [4], the Ratio Ki was 0.39.
Take `CNC(=O)[C@H]1O[C@@H](n2cnc3c(NCCc4cc(C(C)(C)C)c(O)c(C(C)(C)C)c4)ncnc32)[C@H](O)[C@@H]1O`: the Ki is 620 nM in assay [1], > 10 µM in assay [2] and 9 nM in assay [3]. Besides, the Ratio Ki in [4] was 69.
Consider `CNC(=O)[C@H]1O[C@@H](n2cnc3c(Nc4ccc5c(c4)C(C)(C)NC5(C)C)ncnc32)[C@H](O)[C@@H]1O`, for which the Ki is 1170 nM in [1], > 10 µM in [2] and 70 nM in [3]. The Ratio Ki in [4] was 16.
On to `CNC(=O)[C@H]1O[C@@H](n2cnc3c(NCc4ccc(CNC(=O)c5cc(OC)c(OC)c(OC)c5)cc4)ncnc32)[C@H](O)[C@@H]1O`, for which the inhibition constant Ki in [1] was 76.8 nM; in [2], > 10 µM; in assay [3] it was 5.04 nM. The Ratio Ki in assay [4] turned out to be 15. For the same compound, the inhibition result in assay [5] is “Active”. The inhibition result in [6] and in assay [7] was “inactive” throughout.
Consider `CNC(=O)[C@H]1O[C@@H](n2cnc3c(NC4CC(C)(C)N([O])C(C)(C)C4)ncnc32)[C@H](O)[C@@H]1O`, for which the Ki in [1] was 1890 nM; in assay [2] it was > 10 µM; in assay [3], 4160 nM. Moreover, the Ratio Ki in assay [4] amounted to 0.45.
For `CNC(=O)[C@H]1O[C@@H](n2cnc3c(NCC4CC(C)(C)N([O])C4(C)C)ncnc32)[C@H](O)[C@@H]1O` (stereo partly drawn), in that order: 570 nM, > 10 µM, 1020 nM and 0.56.
In the case of `CNC(=O)[C@H]1O[C@@H](n2cnc3c(NCc4cccc(I)c4)ncnc32)[C@H](O)[C@@H]1O` [IB-MECA], in assay [5], the inhibition result was “Active”. Besides, the inhibition at 0.1 µM in assay [5] is 54.1%. The inhibition entry in assay [6] and in assay [7] was “inactive” in each case.
In the case of `CNC(=O)[C@H]1O[C@@H](n2cnc3c(NCc4ccc5c(c4)C(C)(C)N([O])C5(C)C)ncnc32)[C@H](O)[C@@H]1O`, the Ki is 1290 nM in [1], > 10 µM in [2] and 320 nM in assay [3]. The Ratio Ki in assay [4] came out at 4.
Turning to `CC1(C)c2ccc(NC3NC=Nc4c3ncn4[C@@H]3O[C@H](CO)[C@@H](O)[C@H]3O)cc2C(C)(C)N1[O]` (stereo partly drawn), in [2], the Ki is > 10 µM.
In assay [9], `CC1(C)c2ccc(C(=O)NCCc3ccc(Nc4ncnc5c4ncn5[C@@H]4O[C@H](CO)[C@@H](O)[C@H]4O)cc3)cc2C(C)(C)N1[O]` yielded an inhibitory constant (Ki) of 7 nM. In addition, in assay [10], the Ratio Ki was determined as 3.
On to `CNC(=O)[C@H]1O[C@@H](n2cnc3c(Nc4ccc(CCNC(=O)c5cc(C(C)(C)C)c(O)c(C(C)(C)C)c5)cc4)ncnc32)[C@H](O)[C@@H]1O`, for which the results for the Ki in assay [1], in assay [2] and in [3] were 243 nM, > 10 µM and 45 nM, respectively. In addition, in assay [4], the Ratio Ki amounted to 5.4.
Regarding `CNC(=O)[C@H]1O[C@@H](n2cnc3c(NCc4ccc(NC(=O)CCC(=O)NCCc5cc(C(C)(C)C)c(O)c(C(C)(C)C)c5)cc4)ncnc32)[C@H](O)[C@@H]1O`, the Ki in assay [1] was 42.1 nM; in assay [2] it was > 10 µM; in [3], 2.22 nM. Further, in assay [4], the Ratio Ki amounted to 19.
In the case of `CC1(C)NC(C)(C)c2cc(Nc3ncnc4c3ncn4[C@@H]3O[C@H](CO)[C@@H](O)[C@H]3O)ccc21`, the Ki was 290 nM in assay [1], > 10 µM in assay [2] and 280 nM in [3]. For the same compound, the Ratio Ki in assay [4] came out at 1.
`CNC(=O)[C@H]1O[C@@H](n2cnc3c(NCc4ccc(CNC(=O)c5cc(C(C)(C)C)c(O)c(C(C)(C)C)c5)cc4)ncnc32)[C@H](O)[C@@H]1O`: the results for the inhibition constant (Ki) in assay [1], in assay [2] and in assay [3] were 105 nM, > 10 µM and 5.63 nM, respectively. Besides, in assay [4], the Ratio Ki turned out to be 19. Moreover, the inhibition entry in assay [5] is “Active”. Besides, the inhibition entry in assay [6] and in assay [7] was “inactive” each time.
In the case of `CC1(C)CC(NC2NC=Nc3c2ncn3[C@@H]2O[C@H](CO)[C@@H](O)[C@H]2O)CC(C)(C)N1` (stereo partly drawn), the Ratio Ki in [4] amounted to 0.063.
